Data from ChEMBL document CHEMBL5724562, “Toxicity screen in isolated B cell assay results for EUbOPEN Chemogenomics Library” (2024).
Non-standard residues stand in square brackets, D forms with d. Residues, ends and D or L forms follow the SMILES beside them. *: point of attachment. dPhe(4-NHCONH2) = NC(=O)Nc1ccc(C[C@@H](N)C(=O)O)cc1; Dihydroorotyl(S) = O=C1C[C@@H](C(=O)*)NC(=O)N1; dPhe(4-Cl) = N[C@H](Cc1ccc(Cl)cc1)C(=O)O; Phe(4-NH2) = Nc1ccc(C[C@H](N)C(=O)O)cc1; d2Nal = N[C@H](Cc1ccc2ccccc2c1)C(=O)O; Arg(Me) = CNC(=N)NCCC[C@H](N)C(=O)O; Lys(iPr) = CC(C)NCCCC[C@H](N)C(=O)O; d3Pal = N[C@H](Cc1cccnc1)C(=O)O; d4Pal = N[C@H](Cc1ccncc1)C(=O)O; azaGly = NNC(=O)O

The compounds below were run on B cell (assay: Cytotoxicity screening of chemical probes in isolated B cell assay. Data is normalized to DMSO control, the cell viability average of replicates are reported. Reduction of ATP level more than 20% indicate compromised cell health status.). Details: human, 0.1 µM.

| Compound | Cell Viability [%] |
| --- | --- |
| CN1C(=O)[C@@H](N2CCc3c(nn(Cc4ccccc4)c3Br)C2=O)COc2ccccc21 [TP-030-2] | 101.749 |
| O=C(O)[C@H]1[C@H](Cn2nnc3ccccc3c2=O)CC[C@@H]1C(=O)c1ccc(OCCC2CCOCC2)cc1 [BAY-7598] | 98.8077 |
| O[C@]1(C(F)(F)F)CCCC[C@H]1Nc1ccc(F)cc1 [BAY-390] | 101.834 |
| COc1cccc(CNC(=O)c2nc3scc(COCc4ccc(C(=O)O)cc4)c3c(=O)[nH]2)c1 [T-26c] | 102.037 |
| COc1ccc2cc(OCC3(C(=O)O)CN(C(=O)c4ccc(F)cc4)C3)ccc2c1 [PF-04418948] | 98.5812 |
| O=C(NCc1ncc(C(F)(F)F)cc1Cl)c1ccc2c(c1)C1(CCS(=O)(=O)CC1)[C@H](C1CC1)N2S(=O)(=O)c1ccc(F)cc1 [BAY-784] | 98.8405 |
| Cc1c[nH]c2nccc(Oc3c(F)cc(Nc4cc(Cl)nc(N)n4)cc3F)c12 [BAY-549] | 99.4175 |
| CCCOc1ccc([C@H]2[C@H](C(=O)O)[C@@H](c3ccc4c(c3)OCO4)CN2CC(=O)Nc2c(CC)cccc2CC)cc1 [A-192621] | 97.3784 |

Same assay, conditions: human, 1 µM

| Compound | Cell Viability [%] |
| --- | --- |
| CCOCCn1cc(C(=O)Nc2ccc(-n3nc(-c4cccnc4)cc3C(F)(F)F)cn2)ccc1=O [BI 1935] | 94.8333 |
| CC#C[C@@H](CC(=O)O)c1ccc(OCc2cccc(-c3ccc(C(F)(F)F)cc3)c2)cc1 | 93.0276 |
| COc1cc(Nc2ccnc3ccc(Br)cc23)cc(OC)c1OC | 95.869 |
| O=C(Nc1cnc(Oc2ccc(F)cc2)nc1)N1CCc2ncccc2[C@@H]1c1ccc(F)cc1 [BAY-899] | 98.9586 |
| Cl.Cl.NC1(c2ccc(-c3nc4ccn5c(=O)[nH]nc5c4cc3-c3ccccc3)cc2)CCC1 | 85.9288 |
| Cc1ccc(/C(=C\CN2CCCC2)c2ccccn2)cc1 [TRIPROLIDINE] | 98.8273 |
| CC(C)N(CCCNC(=O)Nc1ccc(C(C)(C)C)cc1)C[C@H]1O[C@@H](n2cc(Br)c3c(N)ncnc32)[C@H](O)[C@@H]1O | 95.9292 |
| O=C(NC[C@H](O)CN1CCc2ccccc2C1)c1ccnc(NC2CCC2)c1 | 91.5741 |
| CC(=O)C1=C(C)N(c2cccc(C(F)(F)F)c2)C(=O)N[C@@H]1c1ccc(C#N)nc1 [BAY-678] | 97.287 |
| Cc1ccc2c(c1CCC(=O)O)CC[C@@H](NS(=O)(=O)c1ccc(Cl)cc1)C2 [TERUTROBAN] | 102.464 |
| COc1cc2c(NC3CCN(C(C)C)CC3)nc(N3CCC(F)(F)CC3)nc2cc1OCCCN1CCCC1 | 98.4898 |
| COc1cc2c(cc1OCCCN1CCCC1)N=C(N)C21CCC1 | 98.8274 |
| O=c1nc(-c2ccccn2)sc2ccccc12 [BTZO-1] | 96.3183 |
| CCC(=O)N[C@H]1CC[C@@H](C(=O)N(C)c2ccc(-c3nc4ccccc4o3)cc2)C1 [BI 99179] | 102.234 |
| CSc1cc2c(cc1C(F)(F)F)N(C(=O)Nc1cccnc1)CC2 | 99.9626 |
| CC[C@H]1OC(=O)[C@H](C)[C@@H](O[C@H]2C[C@@](C)(OC)[C@@H](O)[C@H](C)O2)[C@H](C)[C@@H](O[C@@H]2O[C@H](C)C[C@H](N(C)C)[C@H]2O)[C@@]2(C)CC(C)=C(O2)[C@H](C)[C@@H](O)[C@]1(C)O | 98.1033 |
| CCOC(=O)CCNc1cc(N2CCc3ccccc3CC2)nc(-c2ccccn2)n1 | 95.6308 |
| Cc1cc2c(cc1N1C(=O)c3cccc4c(CCCO)ccc(c34)C1=O)n(C)c(=O)n2C | 92.6096 |
| CCCOc1ccn2c(C(C)=O)cc(-c3ccccc3S(C)(=O)=O)c2c1 | 98.3118 |
| Cc1ccc2nc(CNCCCOc3ccccc3)cc(O)c2c1 [UCSF924] | 96.7712 |
| CC(C)NC(=O)N1CC[C@H](NC2=Nc3cc(F)ccc3N(CC(F)F)c3ccc(Cl)cc32)C1 | 98.1837 |
| Clc1cc2c(NC3CCCC3)nnc(-c3ccncc3)c2cc1Cl | 99.0979 |

| Compound | Cell Viability [%] |
| --- | --- |
| CN1CCN(C(=O)C(C)(C)c2ccc(C(=O)Nc3cn4cc(-c5ccncc5)ccc4n3)cc2)CC1 [T3-CLK] | 73.6988 |
| CCCCN(CCCC)C(=O)CN1C[C@@H](c2cc(OC)c3c(c2)OCO3)[C@H](C(=O)O)[C@H]1CC(C)(C)CCC.Cl | 89.8179 |
| CNC(=O)c1cc(C(=O)NC2CC2)cn(Cc2ccccc2)c1=O [GSK620] | 102.307 |
| COc1cc(-c2cn(C)c(=O)c3cnccc23)c(OC)cc1CN(C)C | 95.7323 |
| CCOc1nc2cccc(C(=O)O)c2n1Cc1ccc(-c2ccccc2-c2nnn[nH]2)cc1 | 101.389 |
| Cl.O=c1c2cccn2c2ccccc2n1CCCN1CCC(c2ccc(Cl)cc2)CC1 | 96.0052 |
| CNC(=N)NCCC[C@H](NC(=O)[C@H](CC(C)C)NC(=O)NNC(=O)[C@H](Cc1ccccc1)NC(=O)[C@H](CO)NC(=O)[C@H](CC(N)=O)NC(=O)[C@@H](Cc1ccncc1)NC(=O)[C@H](N)Cc1ccc(O)cc1)C(=O)N[C@@H](Cc1ccccc1)C(N)=O [KISS1-305] (H-[dY][d4Pal]NSF[azaGly]L[Arg(Me)]F-NH2) | 101.037 |
| C[C@H]1CC(=O)Nc2cc(C(=O)NCCC3CC3)ccc2N1C(=O)N1CC2CC2C1 (some centres not stated) | 100.735 |
| O=C(NCCN1CCOCC1)c1ccc2c(c1)C(=O)c1ccc(Nc3ccc(F)c(NC(=O)c4ccccc4)c3)cc1CC2 [FS-694] | 91.9931 |
| N#CC1(c2ccccn2)CCN(Cc2cc(C(=O)O)c(=O)n3ccccc23)CC1 [MSD-M1PAM] | 98.7103 |
| Cc1sc2c(c1C)C(c1ccc(Cl)cc1)=N[C@@H](CC(=O)OC(C)(C)C)c1nnc(C)n1-2 | 83.2653 |
| COC(c1ccccc1)(c1ccccc1)[C@H](Oc1nc(C)cc(C)n1)C(=O)O [AMBRISENTAN] | 104.904 |
| CC(C)(O)c1cncc(-c2nc3ccc(F)cc3n2C2CC2)c1 [MSD-CYP11B2] | 100.571 |
| Nc1ncnc2c1ccn2[C@@H]1O[C@H]([C@H](O)c2ccccc2)[C@@H](O)[C@H]1O | 101.429 |
| C[C@@H](OC[C@@]1(c2ccccc2)CC[C@]2(CCC(=O)N2)CN1)c1cc(C(F)(F)F)cc(C(F)(F)F)c1 [ROLAPITANT] | 97.3629 |
| CC1=C(C#N)C(c2ccc3[nH]nc(C)c3c2)C(C#N)=C(C)N1 [BAY-474] | 96.499 |
| CCN(CC)S(=O)(=O)Nc1cccc(-c2ccc3c(NC(=O)C4CC4)n[nH]c3c2)c1 | 95.3727 |
| Cc1cc(Cn2cnc3c2C[C@@H](C(=O)O)N(C(=O)C(c2ccccc2)c2ccccc2)C3)ccc1N(C)C | 100.94 |
| Cc1cc2c(-c3ccco3)cnc(N[C@@H]3CCN(C)C[C@H]3C(=O)NC3CCCCC3)c2[nH]c1=O [GSK789] | 93.8199 |
| Cc1nc(N2CC[C@H](O)C2)ncc1-c1cc(C(F)(F)F)cc2[nH]ncc12 | 99.9461 |
| Cc1cn(-c2cc(NC(=O)c3ccc4c(c3)CN(c3cncnc3)C[C@@H]4C)cc(C(F)(F)F)c2)cn1 | 96.9111 |
| CC(=O)N[C@H](Cc1ccc2ccccc2c1)C(=O)N[C@H](Cc1ccc(Cl)cc1)C(=O)N[C@H](Cc1cccnc1)C(=O)N[C@@H](CO)C(=O)N[C@@H](Cc1ccc(NC(=O)[C@@H]2CC(=O)NC(=O)N2)cc1)C(=O)N[C@H](Cc1ccc(NC(N)=O)cc1)C(=O)N[C@@H](CC(C)C)C(=O)N[C@@H](CCCCNC(C)C)C(=O)N1CCC[C@H]1C(=O)N[C@H](C)C(N)=O [DEGARELIX] (Ac-[d2Nal][dPhe(4-Cl)][d3Pal]S[Phe(4-NH2)](Dihydroorotyl(S))[dPhe(4-NHCONH2)]L[Lys(iPr)]P[dA]-NH2) | 102.434 |

| Compound | Cell Viability [%] |
| --- | --- |
| c1ccc2oc(-c3csc(C4CCN(Cc5nc6ncccc6[nH]5)CC4)n3)cc2c1 | 83.0928 |
| CN(C)C(=O)/C(C#N)=C/c1ccc(-c2nc3cnc4[nH]ccc4c3n2C2CCCCC2)o1 | 89.3026 |
| COCCn1c(C)c(C)s/c1=N\C(=O)C1C(C)(C)C1(C)C | 97.5131 |
| CCCn1c(=O)c2[nH]c(C3CCCC3)nc2n(CCC)c1=O [1,3-DIPROPYL-8-CYCLOPENTYLXANTHINE [DPCPX]] | 101.399 |
| C[C@@H](NC(=O)Nc1cc2[nH]ncc2c(CO)n1)c1ccccc1 [ERKi] | 88.9841 |
| O=C1CCc2cc(Nc3cc(OC4CCOCC4)c([N+](=O)[O-])cc3Cl)ccc2N1 | 94.8245 |
| Cc1c(Nc2ccc(S(=O)(=O)N3CCN(C)CC3)cc2F)nc2ccc(-c3cnn(C4CC4)c3)cn2c1=O | 96.0793 |
| CN(C)CC#Cc1ccc(OCCCc2sc(N3CCc4cccc(C(=O)Nc5nc6ccccc6s5)c4C3)nc2C(=O)O)c(F)c1 [A-1155463] | 88.7648 |
| CCN(C(=O)CO)[C@H]1CN(/C(=N\C#N)Nc2cccc(OC(F)F)c2)N=C1c1ccc(Cl)c(Cl)c1 | 100.495 |
| CC(=O)N1CCC(c2ccc(C(=O)NC(=N)N)cc2C(F)(F)F)CC1 [BI 9627] | 95.0864 |
| Cc1ccccc1Oc1cc(-n2c(=O)cc(C(F)(F)F)[nH]c2=O)c2ccccc2c1Cl [BAY-069] | 101.552 |
| CC(=O)Nc1c(C(C)=O)c(=O)n(C)c2nc(-c3ccc(Cl)cc3Cl)c(-c3ccc(Cl)cc3)cc12 [NAPHTHYRIDINONE] | 96.2894 |
| Cc1cccc(-c2cnc3occ(-c4ccc(C(=O)O)c(C5CCCC5)c4)c3c2)c1 | 94.5514 |
| C[C@@H]1CN(Cc2ccc(F)cc2)CCN1C(=O)COc1ccc(Cl)cc1NC(N)=O [BX 471 FREE BASE] | 91.1693 |
| O=C(Nc1cccnn1)N1CCC(=Cc2cccc(Oc3ccc(C(F)(F)F)cn3)c2)CC1 | 98.4854 |
| CCCc1cc(C)[nH]c(=O)c1CNC(=O)c1cc(-c2ccnc(N3CCN(C)CC3)c2)cc2c1cnn2C(C)C | 92.8371 |
| O=C(O)c1n[nH]c2c1C[C@H]1C[C@@H]21 | 98.0706 |
| Cc1cnc(-c2cc(Cl)ccc2F)cc1-n1c(=O)n(CC(N)=O)c2cnccc21 [TP-008] | 103.993 |
| C[C@H]1CCCN1Cc1nc2cc(NC(=O)c3ccc4cnccc4c3)ccc2[nH]1 | 90.4338 |
| CN(C)[C@@H]1CCN(c2cc(-c3ccccc3)nc3ccnn23)C1 [(R)-ZINC-3573] | 100.756 |
